Experiment: xn = mol fraction of the nth substance listed
Conditions: 100 kPa, Liquid; for viscosity: Concentric cylinders viscometry; for mass density: Vibrating tube method

CCCC[n+]1ccn(C)c1.O=S(=O)([N-]S(=O)(=O)C(F)(F)F)C(F)(F)F + CCCCn1cc[n+](C)c1.F[B-](F)(F)F
Conditions	mass density, x1 = 0.25 [kg/m3]	mass density, x1 = 0.498 [kg/m3]	mass density, x1 = 0.751 [kg/m3]	mass density, x1 = 1 [kg/m3]	viscosity, x1 = 0.25 [mPa·s]	viscosity, x1 = 0.498 [mPa·s]	viscosity, x1 = 0.751 [mPa·s]	viscosity, x1 = 1 [mPa·s]
283.15 K	1291.2	1355.8	1409.1	1451.8	200.83	158.06	127.96	106.77
288.15 K	1287.1	1351.4	1404.4	1446.9	149.79	119.67	97.87	82.16
293.15 K	1283.1	1347.1	1399.8	1442.1	114.12	92.47	76.33	64.53
298.15 K	1279.1	1342.8	1395.1	1437.2	88.56	72.77	60.64	51.6
303.15 K	1275.1	1338.5	1390.5	1432.4	69.91	58.24	48.97	41.93
308.15 K	1271.2	1334.2	1386	1427.6	56.12	47.31	40.14	34.59
313.15 K	1267.3	1329.9	1381.5	1422.8	45.7	38.96	33.35	28.91
318.15 K	1263.4	1325.7	1376.9	1418.1	37.72	32.48	28.05	24.46
323.15 K	1259.5	1321.4	1372.4	1413.4	31.52	27.36	23.85	20.91
328.15 K	1255.6	1317.2	1368	1408.7	26.63	23.29	20.48	18.05
333.15 K	1251.8	1313.1	1363.5	1404	22.71	20.02	17.75	15.72
338.15 K	1248	1308.9	1359.1	1399.3	19.58	17.36	15.51	13.8
343.15 K	1244.2	1304.8	1354.8	1394.7	17.02	15.19	13.66	12.2
348.15 K	1240.4	1300.7	1350.4	1390.1	14.91	13.38	12.11	10.86
353.15 K	1236.7	1296.6	1346	1385.5	13.15	11.84	10.81	9.72
358.15 K	1233	1292.6	1341.7	1381	11.66	10.55	9.688	8.754
363.15 K	1229.3	1288.6	1337.5	1376.4	10.42	9.467	8.733	7.926

CCCCn1cc[n+](C)c1.COP(=O)([O-])OC [1-butyl-3-methyl-1H-imidazolium dimethylphosphate] + CCCC[n+]1ccn(C)c1.O=S(=O)([N-]S(=O)(=O)C(F)(F)F)C(F)(F)F
Conditions	mass density, x2 = 0 [kg/m3]	mass density, x2 = 0.25 [kg/m3]	mass density, x2 = 0.501 [kg/m3]	mass density, x2 = 0.747 [kg/m3]	viscosity, x2 = 0 [mPa·s]	viscosity, x2 = 0.25 [mPa·s]	viscosity, x2 = 0.501 [mPa·s]	viscosity, x2 = 0.747 [mPa·s]
283.15 K	1168.4	1251	1325.1	1390.6	2315.6	1433.7	630.61	251.51
288.15 K	1164.9	1247	1320.6	1386	1454.6	930.25	433.3	183.6
293.15 K	1161.4	1243.1	1316.2	1381.5	943.97	618.01	301.49	137.3
298.15 K	1157.9	1239.1	1312	1377	641.71	432.55	222.26	104.86
303.15 K	1154.3	1235.2	1307.8	1372.5	446.92	307.85	165.15	81.71
308.15 K	1150.9	1231.4	1303.7	1368.1	319.33	224.53	125.35	64.81
313.15 K	1147.6	1227.7	1299.7	1363.6	232.1	166.25	96.27	52.46
318.15 K	1144.3	1224.1	1295.6	1359.2	174.7	127.53	76.39	42.72
323.15 K	1141	1220.4	1291.6	1354.8	133.37	98.92	61.14	35.4
328.15 K	1137.8	1216.8	1287.6	1350.4	103.62	78.04	49.65	29.69
333.15 K	1134.6	1213.2	1283.5	1346	81.97	62.7	41.07	25.42
338.15 K	1131.4	1209.7	1279.5	1341.7	65.62	50.83	34.05	21.56
343.15 K	1128.3	1206.1	1275.6	1337.4	53.39	41.87	28.69	18.63
348.15 K	1125.1	1202.5	1271.6	1333.1	44.01	34.9	24.42	16.23
353.15 K	1122	1199	1267.7	1328.8	37.08	29.8	21.36	14.57
358.15 K	1118.9	1195.5	1263.7	1324.6	30.94	25.03	18.18	12.61
363.15 K	1115.7	1192	1259.9	1320.4	26.33	21.5	15.88	11.22

CC(=O)[O-].CCCCn1cc[n+](C)c1 [1-butyl-3-methylimidazolium acetate] + CCCC[n+]1ccn(C)c1.O=S(=O)([N-]S(=O)(=O)C(F)(F)F)C(F)(F)F
Conditions	mass density, x2 = 0 [kg/m3]	mass density, x2 = 0.25 [kg/m3]	mass density, x2 = 0.498 [kg/m3]	mass density, x2 = 0.749 [kg/m3]	viscosity, x2 = 0 [mPa·s]	viscosity, x2 = 0.25 [mPa·s]	viscosity, x2 = 0.498 [mPa·s]	viscosity, x2 = 0.749 [mPa·s]
283.15 K	1062.7	1193.2	1296.5	1381.4	1013.4	577.38	310.72	175.1
288.15 K	1059.4	1189.4	1292.2	1376.8	645.6	385.58	220.24	129.87
293.15 K	1056	1185.6	1288	1372.3	421.35	265.43	159.18	101.85
298.15 K	1052.8	1181.9	1283.8	1367.8	292.57	189.58	119.72	76.32
303.15 K	1049.7	1178.3	1279.7	1363.3	206.68	138.72	91.38	60.27
308.15 K	1046.6	1174.7	1275.7	1358.8	150.08	104	71.14	48.44
313.15 K	1043.5	1171.1	1271.6	1354.3	110.79	79.57	56.47	40.34
318.15 K	1040.5	1167.5	1267.5	1349.9	85.03	62.28	45.44	32.7
323.15 K	1037.5	1163.9	1263.5	1345.4	66.07	49.57	37.16	27.36
328.15 K	1034.5	1160.3	1259.4	1341	52.29	40.09	30.8	23.18
333.15 K	1031.5	1156.8	1255.4	1336.6	42.29	33.14	26.09	20.11
338.15 K	1028.5	1153.2	1251.4	1332.3	34.38	27.38	21.93	17.14
343.15 K	1025.6	1149.7	1247.5	1327.9	28.48	23.05	18.79	14.96
348.15 K	1022.6	1146.1	1243.5	1323.6	23.88	19.63	16.25	13.13
353.15 K	1019.7	1142.6	1239.6	1319.4	20.63	17.21	14.49	11.89
358.15 K	1016.7	1139.1	1235.7	1315.1	17.35	14.64	12.45	10.35
363.15 K	1013.9	1135.6	1231.8	1310.9	15	12.81	11.02	9.272
